Laboratory results published in patent US20060233809A1, “Method for treating prostate conditions” (priority 2005, published 2006).
Read-outs that look alike come from different tables or passages of the source.

Experiments:
[1] = test system: AR protein in RPE cells (BCRP-mediated transport); experiment: Immunocytochemical analysis of nuclear-localized AR protein in RPE cells; format: cell-based, rat; settings: 50 μmol/L novobiocin and/or 3 nmol/L dihydrotestosterone, 14 hours; immunocytochemistry, n>200 cells/group
[2] = molecular target: T1, BCRP (Rattus norvegicus, UniProt Q80W57); format: cell-based; settings: RPE cells
T1 construct: the Mx-RPE cells have a higher level of BCRP activity than RPE cells; endogenous in cells; host or cells: Mx-RPE (mitoxantrone-resistant subline of rat RPE cells)
T1 sequence (Q80W57 1-657): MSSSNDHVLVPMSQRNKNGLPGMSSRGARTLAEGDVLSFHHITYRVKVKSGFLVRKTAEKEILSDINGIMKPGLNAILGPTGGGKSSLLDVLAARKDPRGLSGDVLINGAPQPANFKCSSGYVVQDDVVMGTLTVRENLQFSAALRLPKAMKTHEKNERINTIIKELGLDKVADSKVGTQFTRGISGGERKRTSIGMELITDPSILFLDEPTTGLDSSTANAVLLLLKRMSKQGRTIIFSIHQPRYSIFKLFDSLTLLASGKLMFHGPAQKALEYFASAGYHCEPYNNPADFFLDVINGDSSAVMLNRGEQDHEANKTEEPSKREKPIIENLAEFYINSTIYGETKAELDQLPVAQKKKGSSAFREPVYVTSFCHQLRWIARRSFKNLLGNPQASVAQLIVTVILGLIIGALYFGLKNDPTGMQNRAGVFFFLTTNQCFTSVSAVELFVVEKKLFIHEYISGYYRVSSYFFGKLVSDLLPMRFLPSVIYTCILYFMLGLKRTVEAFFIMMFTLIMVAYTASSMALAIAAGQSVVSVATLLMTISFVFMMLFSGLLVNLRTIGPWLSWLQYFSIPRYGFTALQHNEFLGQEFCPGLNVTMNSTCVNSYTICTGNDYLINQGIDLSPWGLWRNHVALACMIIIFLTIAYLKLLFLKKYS
Excerpt: (§1) Data for Hoechst 33342 efflux represent two independent experiments (n>1,000 cells, *** P<0.0001).
(§2) Additionally, novobiocin and fumitremorgin C were compared in RPE cells as inhibitors of BCRP-mediated efflux of Hoechst 33342, the marker utilized to identify the side population phenotype of stem cells. Fumitremorgin C is a specific inhibitor for BCRP-mediated transport.

[3] = molecular target: T1, BCRP; format: cell-based; settings: Mx-RPE cells
Excerpt: as §1
Rat prostate progenitor (stem cell-like) cell lines (RPE, DP2, DP3, and DP4) were established from regenerating prostates of Fischer-344 rats and were maintained in prostate growth media (Presnell et al., Prostate Cancer Prostatic Dis (1999); 2:257-63) supplemented with 2% fetal bovine serum (FBS; Hyclone, Logan, UT) without androgen supplementation. […] A subpopulation of RPE cells was selected for resistance to mitoxantrone (Mx-RPE) by continuous culture in increasing concentrations of mitoxantrone (0.2-4 μmol/L; Sigma).
Additionally, novobiocin and fumitremorgin C were compared in RPE cells as inhibitors of BCRP-mediated efflux of Hoechst 33342, the marker utilized to identify the side population phenotype of stem cells. Fumitremorgin C is a specific inhibitor for BCRP-mediated transport. […] The moderate increase in nuclear Hoechst 33342 dye in RPE cells with inhibited BCRP function reflects a combination of the limited dynamic range of digital imaging technology and the constitutive expression of MDR-1 in the RPE cells (data not shown) because MDR-1 also effectively transports Hoechst 33342 dye; however, novobiocin and fumitremorgin C inhibit only the BCRP-mediated component of Hoechst efflux, not MDR-1 function (Doyle et al., Oncogene (2003); 22:7340-58; Shiozawa et al., Int. J. Cancer (2004); 108:146-51).

[4] = limiting use in vivo; cited from earlier work
[5] = test system: AR protein in RPE cells (BCRP function); experiment: Immunoblot analysis of AR protein in RPE cell lysates; format: cell-based, rat; settings: 50 μmol/L novobiocin and/or 3 nmol/L dihydrotestosterone; normalized to actin
[6] = test system: DP3 cell line; experiment: Intracellular [3H]dihydrotestosterone accumulation in BCRP-lacking DP3 control cell line; format: cell-based, rat; settings: DP3 cell line (lacks BCRP)
Excerpt: as §2

[7] = test system: TRAMP mice; experiment: Foci of SV40Tag+ cells in prostates of castrated TRAMP mice treated with novobiocin; format: in vivo, mouse; settings: novobiocin 25 mg/kg/5 times a week
Excerpt: In this model, the PB-SV40 large T antigen transgene (SV40Tag) is expressed specifically in the epithelial cells of the murine prostate. Cells expressing the SV40Tag transgene can be detected by immunohistological methods using labeled monoclonal antibodies to SV40Tag. Adenocarcinoma of the prostate in TRAMP mice arises as early as eight weeks of age and is characterized by tumor cells that uniformly express high levels of AR and that regress upon castration. In contrast, poorly differentiated neuroendocrine-like carcinomas in TRAMP mice are characterized by expression of the neuroendocrine marker synaptophysin, and an absence, or weak and heterogeneous expression of AR. Neuroendocrine-like carcinomas are rare in young TRAMP mice, but arise rapidly in mice that are castrated between 12 and 14 weeks of age (Kaplan-Lefko et al., Prostate (2003); 55:219-37; Johnson et al., Prostate (2005); 62:322-38).
Treatment of the TRAMP mice with novobiocin (25 mg/kg/5 times a week), or saline (physiologic saline/5 times a week), was initiated at 13 weeks of age and all mice were castrated at 14 weeks of age (1 week following initiation of treatment). TRAMP mice were treated until 19 weeks of age, at which time the prostates, lymph nodes, small intestine, and liver were harvested and processed for analysis using standard techniques. […]

[8] = cited from earlier work

SMILES	increase in the level of nuclear-localized AR in RPE cells [1] [fold]	increase in nuclear Hoechst 33342 compared with the DMSO control ([2]; 10 μmol/L fumitremorgin C) [fold]	increase in intracellular levels of [3H]dihydrotestosterone ([3]; 10 μmol/L fumitremorgin C) [fold]	neurotoxicity [4]	increase of AR protein in RPE cells (immunoblot) [5] [fold]	increase in retention of Hoechst 33342 ([2]; 5 mmol/L novobiocin) [fold]	increase in retention of Hoechst 33342 ([2]; 10 mmol/L novobiocin) [fold]	increase in intracellular levels of [3H]dihydrotestosterone ([3]; 5 mmol/L novobiocin) [fold]	increase in intracellular levels of [3H]dihydrotestosterone ([3]; 10 mmol/L novobiocin) [fold]	effect on the level of accumulation of intracellular [3H]dihydrotestosterone [6]	establishment of recurrent growth in TRAMP [7]	#Foci/Animal, pattern: >10 cells Differentiated ([7]; 13 to 19 weeks of age)	toxicity in humans [8]
C[C@]12CCC(=O)C[C@@H]1CC[C@@H]1[C@@H]2CC[C@]2(C)[C@@H](O)CC[C@@H]12 [dihydrotestosterone]	2.8	–	–	–	–	–	–	–	–	–	–	–	–
COc1ccc2c3c([nH]c2c1)[C@H](C=C(C)C)N1C(=O)[C@@H]2CCCN2C(=O)[C@@H]1C3 [fumitremorgin C]	–	2.3	3.3	extremely neurotoxic	–	–	–	–	–	–	–	–	–
CO[C@@H]1[C@@H](OC(N)=O)[C@@H](O)[C@H](Oc2ccc3c(O)c(NC(=O)c4ccc(O)c(CC=C(C)C)c4)c(=O)oc3c2C)OC1(C)C [novobiocin]	2.4	–	–	–	7	1.2	1.45	2.4	5.5	no effect	inhibited establishment of recurrent growth	significant increase	well tolerated toxicity in humans
